Data from PMC12867150, “A fungi-derived cyclic peptide enhances Th9-mediated antitumor immunity by targeting ZAP70 and SREBP1” (The Journal of Clinical Investigation, 2025).

Experiments:
Raji-luciferase tumor = assay: Raji-luciferase xenograft, bioluminescence tumor radiance (Figure 8J-K); format: in vivo, NSG mice; details: EpA-treated human Th9 CAR T cells 2 × 10^6 i.v.; n = 5; result in words
From the text: Representative plots (A) and quantification (B) (n = 4). (C) Quantitative PCR analysis of IL9, IRF4, and SPI1 mRNA expression in human Th9 cells (n = 3). (D) Flow-cytometric analysis of mitochondrial membrane potential in human Th9 cells (n = 3). (E) Luciferase-based assay analysis of intracellular ATP levels in human Th9 cells (n = 5). (F) Flow-cytometric analysis of phosphorylated ZAP70 in human Th9 cells (n = 3). (G) Flow-cytometric analysis of TNF-α expression in human Th9 cells (n = 4). (H) Cytotoxicity assay of EpA-treated or control CD19 CAR Th9 cells against Raji lymphoma target cells at indicated effector-to-target (E/T) ratios (n = 3). (I) Schematic diagram of the in vivo Raji-luciferase xenograft model in NSG mice receiving control or EpA-treated human Th9 CAR T cells. (J and K) Representative bioluminescence imaging (J) and quantification of tumor radiance (K) in NSG mice at indicated time points after adoptive transfer. […] Statistical significance was determined using 2-tailed unpaired Student’s t test (B–H), 2-way ANOVA followed by Šidák’s post hoc test (K), and log-rank test (L). […]
For xenograft models, M-NSG mice were intravenously inoculated with 1 × 10^6 Raji-CD19 tumor cells. […] Tumor progression and immune cell infiltration were subsequently monitored according to experimental endpoints.

B16-OVA melanoma = assay: Adoptive transfer of OT-II Th9 cells, B16-OVA tumor growth in β2m-KO mice (Figure 2H); format: in vivo; details: result in words
From the text: (A) Schematic of the therapeutic model. C57BL/6 mice were subcutaneously inoculated with B16-OVA melanoma cells (5 × 10^5) and preconditioned with cyclophosphamide (CTX) on day 4. […] (B–G) Flow-cytometric analysis of transferred CD45.1^+ OT-II Th9 cells (B and C) and endogenous CD4^+ (D and E) and CD8^+ T cells (F and G) in spleens and tumors, showing frequencies and absolute numbers (n = 4 mice per group). (H) Tumor growth curves in B16-OVA–bearing C57BL/6 or β2-microglobulin–deficient (β2m-KO) mice following transfer of control or EpA-treated OT-II Th9 cells (n = 4 mice per group). (I) C57BL/6 mice bearing B16-OVA tumors were treated with control or EpA-induced OT-II Th9 cells (2 × 10^6, i.v., day 5), followed by anti–PD-1 antibody (200 μg, i.p.) on day 7, and (100 μg, i.p.) on day 10 and 12. Tumor growth is shown with individual trajectories (n = 6 mice per group). Statistical analysis was performed using 2-tailed unpaired Student’s t test ([…], B–G) or 1-way ANOVA with Tukey’s post hoc test (H and I). All data are presented as the mean ± SEM. *P < 0.05, **P < 0.01, ***P < 0.001. Schematic in A created using BioRender (https://Biorender.com).
To directly assess the requirement for endogenous CD8^+ T cells, we utilized β2-microglobulin–deficient (β2m-KO) mice, which lack functional MHC class I and are therefore devoid of CD8^+ T cells ([32]). […]

In the case of anteiso-C15 Leu7 surfactin [EpA], the tumor burden (Raji-luciferase tumor) is reported as “markedly reduced tumor burden” and the “enhanced antitumor efficacy in β2m-KO hosts” value (B16-OVA melanoma) is reported as “completely abolished”.
